Laboratory results published in patent US9446081B2, “Pharmaceutical composition for preventing and treating complications of diabetes containing a traditional oriental medicine extract or a fraction thereof as an active ingredient” (KOREA INSTITUTE OF ORIENTAL MEDICINE, priority 2011, dated 2016).

Key:
[1] = system: spontaneous diabetic Torii (SDT) rats; test: Diabetic nephropathy in type II diabetic animal model; type: in vivo, rat; conditions: oral once a day 16 weeks
Protocol: (§1) To investigate the effect of the extract of Homonoia riparia Lour. on the prevention and treatment of diabetic complications in spontaneous diabetic Torii (SDT) rats, the type II diabetic animal model, the extract of Homonoia riparia Lour. was orally administered to the animal for 16 weeks. 10-week old male SDT rats (CLEA Japan Inc., Tokyo, Japan) were adapted for 1 week, and then continued to raise for 15 weeks until the blood sugar level reached 300 mg/dl. Feed and water were provided freely. 15 weeks later, the rats were grouped into 5 group (8 rats per group), to which the extract of Homonoia riparia Lour. (HR) and the control drug MET were administered orally once a day. The experimental groups included the normal group (NOR), the diabetic group (DM), the metformin (350 mg/kg) treated diabetic group (MET), the Homonoia riparia Lour. extract (100 mg/kg) treated diabetic group (HR-100), and the Homonoia riparia Lour. extract (250 mg/kg) treated diabetic group (HR-250). Each group was administered with the test samples orally once a day for 16 weeks. Urine was picked up 24 hours before autopsy. The organs extracted by autopsy were stored at −80° C.
To investigate the effect of the extract of Homonoia riparia Lour. on the functions of the kidney suffering from chronic diabetes, urine was taken from the animal model 24 hours before the autopsy, with which renal indices {proteinuria, albuminuria, and glomerular filtration rate (Ccr)}, and glycation products (AGES and CML) were quantified. ELISA was performed to measure proteinuria, albuminuria, glomerular filtration rate, AGEs, CML, and podocyte (synaptopodin and WT-1). Particularly, the urine sample was mixed with coating buffer (50 mM carbonate buffer, pH 9.6) to make the final volume to be 100 μl (1:2), which was distributed in a 96-well plate. The plate stood at 37° C. for 3 hours and then washed with 0.05% PBST three times, followed by blocking with 3% skim milk. The plate stood as it was for 1 more hour and then washed. AGEs (Transgenic, JAPAN), CML (Transgenic, JAPAN), albumin, synaptopodin, and WT-1 (Santa Cruz, USA) antibodies were diluted respectively at the ratio of 1:1000, which were loaded in each well of the plate by 100 μl. The plate stood at 37° C. for 2 hours, and washed with 0.05% PBST. HRP-conjugated secondary antibody was loaded in each well of the plate by 100 μl, followed by reacting at 37° C. for 1 hour. 100 μl of the substrate, 3,3′,5,5′-tetramethylbenzidine (TMB) in 0.05% PBST was added to each well of the plate. 5 minutes later, the reaction was terminated by adding 1M H2SO4 solution (100 μl/well). Then OD was measured with an ELISA reader.
Immunological staining was performed as follows. After deparaffinization and hydration, the slide was reacted in 3% H2O2 solution for 10 minutes to deactivate endogenous peroxidase activity therein. Then, the slide was washed with PBS containing 0.05% tween 20 three times. To eliminate non-specific reaction, the slide was blocked with 5% AFB (animal free bock). The primary antibodies AGEs (Transgenic, Japan) and CML (Transgenic, Japan) were diluted (1:1000) and treated to the slide for 1 hour or overnight. After washing with PBS for 1 hour, the slide was treated with labeled streptavidin biotin (LSAB) kit (Dako, USA), followed by color development by using DAB (Dako, USA). Observation was performed under optical microscope.
The kidney was extracted from the animal model during the autopsy, which was fixed in 10% neutralized formalin for overnight. […]

[2] = system: spontaneous diabetic Torii (SDT) rats; test: Inhibition of diabetic retinopathy in type II diabetic animal model; type: in vivo, rat; conditions: oral once a day 16 weeks, metformin 350 mg/kg
Protocol: as §1
When hyperglycemic state continues, retinal vessels in eyeball become mal-functioning to cause blood-retinal barrier breakage. […]

[3] = extract 100 or 250 mg/kg, metformin 350 mg/kg, vs diabetic group (DM), FIG. 6

Question: Which results are given for CN(C)C(=N)N=C(N)N [metformin]?
Answer: glomerular hypertrophy and mesangial matrix expansion / morphological changes (PAS staining) ([1]; extract 100 or 250 mg/kg dose-dependently, metformin 350 mg/kg (not so significant), FIG. 9): decreased; AGEs and CML in urine ([1]; extract 100 or 250 mg/kg, metformin 350 mg/kg, FIG. 7): not much reduced; albuminuria [1, 3]: significantly reduced; proteinuria [1, 3]: higher; collagen deposition in glomerulus (Masson's trichrome staining) ([1]; extract 100 or 250 mg/kg, metformin 350 mg/kg, vs diabetic group (DM), FIG. 10): not much different; blood-retinal barrier breakage (fluorescein-dextran flown out of retinal vessels, non-perfusion area) ([2]; extract 100 or 250 mg/kg (HR-100, HR-250), FIG. 2): fluorescent material was merely observed; pericyte loss, acellular capillary formation and closed vessels in retina ([2]; extract 100 or 250 mg/kg, vs diabetic group, FIG. 3): significantly decreased
